melting point [°C]	Compound
235 to 237	Cc1nc(-n2ccc(-c3ccccc3)cc2=O)sc1C(=O)NCc1ccccc1 [Example 1, N-benzyl-4-methyl-2-(2-oxo-4-phenylpyridin-1(2H)-yl)thiazole-5-carboxamide]
172 to 174	Cc1nc(-n2ccc(OCCC3CC3)cc2=O)sc1C(=O)NCc1ccccc1 [Example 1.3, N-Benzyl-2-(4-(2-cyclopropylethoxy)-2-oxopyridin-1(2H)-yl)-4-methylthiazole-5-carboxamide]
172 to 174	Cc1nc(-n2ccc(OCCC3CC3)cc2=O)sc1C(=O)NCc1ccc(F)cc1 [Example 1.4, 2-(4-(2-Cyclopropylethoxy)-2-oxopyridin-1(2H)-yl)-N-(4-fluorobenzyl)-4-methylthiazole-5-carboxamide]
170 to 172	Cc1nc(-n2ccc(OCCC3CC3)cc2=O)sc1C(=O)NCc1cccnc1 [Example 1.5, 2-(4-(2-Cyclopropylethoxy)-2-oxopyridin-1(2H)-yl)-4-methyl-N-(pyridin-3-ylmethyl)thiazole-5-carboxamide]
280 to 282	Cc1nc(-n2ccc(O)cc2=O)sc1C(=O)NCc1ccc(F)cc1 [Example 1.6, N-(4-Fluorobenzyl)-2-(4-hydroxy-2-oxopyridin-1(2H)-yl)-4-methylthiazole-5-carboxamide]
203 to 204	Cc1nc(-n2ccc(OCc3ccccc3)cc2=O)[nH]c1C(=O)NCc1cccnc1 [Example 1.8, 2-(4-(Benzyloxy)-2-oxopyridin-1(2H)-yl)-4-methyl-N-(pyridin-3-ylmethyl)-1H-imidazole-5-carboxamide]
232 to 233	Cc1nc(-n2ccc(OCc3ccccc3)cc2=O)n(C)c1C(=O)NCc1ccccc1 [Example 1.9, N-Benzyl-2-(4-(benzyloxy)-2-oxopyridin-1(2H)-yl)-1,4-dimethyl-1H-imidazole-5-carboxamide]
190 to 191	Cc1c(C(=O)NCc2ccccc2)nc(-n2ccc(OCc3ccccc3)cc2=O)n1C [Example 1.10, N-Benzyl-2-(4-(benzyloxy)-2-oxopyridin-1(2H)-yl)-1,5-dimethyl-1H-imidazole-4-carboxamide]
200 to 202	COc1ccn(-c2nc(C)c(C(=O)NCc3cccnc3)s2)c(=O)c1 [Example 1.11, 2-(4-Methoxy-2-oxopyridin-1(2H)-yl)-4-methyl-N-(pyridin-3-ylmethyl)thiazole-5-carboxamide]
240 to 242	Cc1nc(-n2ccc(OCc3ccc(C(F)(F)F)o3)cc2=O)sc1C(=O)NCc1cccnc1 [Example 1.12, 4-Methyl-2-(2-oxo-4-((5-(trifluoromethyl)furan-2-yl)methoxy)pyridin-1(2H)-yl)-N-(pyridin-3-ylmethyl)thiazole-5-carboxamide]
231 to 233	Cc1nc(-n2ccc(OCc3ccc(F)cc3)cc2=O)sc1C(=O)NCc1cccnc1 [Example 1.13, 2-(4-(4-Fluorobenzyloxy)-2-oxopyridin-1(2H)-yl)-4-methyl-N-(pyridin-3-ylmethyl)thiazole-5-carboxamide]
249 to 251	Cc1nc(-n2ccc(OCc3ccc(F)cc3)cc2=O)sc1C(=O)NCc1ccc(F)cc1 [Example 1.14, N-(4-Fluorobenzyl)-2-(4-(4-fluorobenzyloxy)-2-oxopyridin-1(2H)-yl)-4-methylthiazole-5-carboxamide]
250 to 252	Cc1nc(-n2ccc(O)cc2=O)sc1C(=O)NCc1cccc(F)c1 [Example 1.15, N-(3-Fluorobenzyl)-2-(4-hydroxy-2-oxopyridin-1(2H)-yl)-4-methylthiazole-5-carboxamide]
240 to 242	Cc1nc(-n2ccc(O)cc2=O)sc1C(=O)NCC1CC1 [Example 1.16, N-(Cyclopropylmethyl)-2-(4-hydroxy-2-oxopyridin-1(2H)-yl)-4-methylthiazole-5-carboxamide]
234 to 236	Cc1nc(-n2ccc(O)cc2=O)sc1C(=O)NCCC1CC1 [Example 1.17, N-(2-Cyclopropylethyl)-2-(4-hydroxy-2-oxopyridin-1(2H)-yl)-4-methylthiazole-5-carboxamide]
225 to 227	Cc1nc(-n2ccc(O)cc2=O)sc1C(=O)NCCc1ccc(F)cc1 [Example 1.18, N-(4-Fluorophenethyl)-2-(4-hydroxy-2-oxopyridin-1(2H)-yl)-4-methylthiazole-5-carboxamide]
294 to 296	Cc1nc(-n2ccc(O)cc2=O)sc1C(=O)NCc1ccc(F)c(F)c1 [Example 1.19, N-(3,4-Difluorobenzyl)-2-(4-hydroxy-2-oxopyridin-1(2H)-yl)-4-methylthiazole-5-carboxamide]
275 to 278	Cc1nc(-n2ccc(O)cc2=O)sc1C(=O)NCc1ccncc1 [Example 1.20, 2-(4-Hydroxy-2-oxopyridin-1(2H)-yl)-4-methyl-N-(pyridin-4-ylmethyl)thiazole-5-carboxamide]
165 to 167	Cc1cc(-n2ccc(OCc3ccccc3)cc2=O)sc1C(=O)NCc1cccnc1 [Example 1.23, 5-(4-(Benzyloxy)-2-oxopyridin-1(2H)-yl)-3-methyl-N-(pyridin-3-ylmethyl)thiophene-2-carboxamide]
243 to 245	Cc1nc(-n2ccc(OCc3ccc(F)cc3)cc2=O)sc1C(=O)NCc1ccccc1 [Example 1.24, N-Benzyl-2-(4-(4-fluorobenzyloxy)-2-oxopyridin-1(2H)-yl)-4-methylthiazole-5-carboxamide]

melting point [°C]	Compound
219 to 220	Cc1nc(-n2ccc(OCc3ccccc3)cc2=O)sc1C(=O)NCc1ccccc1 [Example 2, N-Benzyl-2-(4-(benzyloxy)-2-oxopyridin-1(2H)-yl)-4-methylthiazole-5-carboxamide]
171 to 172	Cc1nc(-n2ccc(N)cc2=O)sc1C(=O)NCc1ccccc1 [Example 3, 2-(4-Amino-2-oxopyridin-1(2H)-yl)-N-benzyl-4-methylthiazole-5-carboxamide]
186 to 187	Cc1nc(-n2ccnc(C)c2=O)sc1C(=O)NCc1ccccc1 [Example 3.1, N-Benzyl-4-methyl-2-(3-methyl-2-oxopyrazin-1(2H)-yl)thiazole-5-carboxamide]
166 to 167	Cc1nc(-n2cc(OCc3ccccc3)ccc2=O)sc1C(=O)NCc1ccccc1 [Example 3.2, N-Benzyl-2-(5-(benzyloxy)-2-oxopyridin-1(2H)-yl)-4-methylthiazole-5-carboxamide]
173 to 174	Cc1nc(-n2cc(Cl)ccc2=O)sc1C(=O)NCc1ccccc1 [Example 3.3, N-Benzyl-2-(5-chloro-2-oxopyridin-1(2H)-yl)-4-methylthiazole-5-carboxamide]
148 to 149	Cc1nc(-n2cc(C(F)(F)F)ccc2=O)sc1C(=O)NCc1ccccc1 [Example 3.4, N-Benzyl-4-methyl-2-(2-oxo-5-(trifluoromethyl)pyridin-1(2H)-yl)thiazole-5-carboxamide]
197 to 198	Cc1nc(-n2ccc(C(F)(F)F)cc2=O)sc1C(=O)NCc1ccccc1 [Example 3.6, N-Benzyl-4-methyl-2-(2-oxo-4-(trifluoromethyl)pyridin-1(2H)-yl)thiazole-5-carboxamide]
198 to 201	Cc1nc(-n2cccc(OCc3ccccc3)c2=O)sc1C(=O)NCc1ccccc1 [Example 3.7, N-Benzyl-2-(3-(benzyloxy)-2-oxopyridin-1(2H)-yl)-4-methylthiazole-5-carboxamide]
225 to 226	Cc1nc(-n2ccc3c(OCc4ccccc4)cccc3c2=O)sc1C(=O)NCc1ccccc1 [Example 3.8, N-Benzyl-2-(5-(benzyloxy)-1-oxoisoquinolin-2(1H)-yl)-4-methylthiazole-5-carboxamide]
213 to 216	Cc1nc(-n2c(=O)ccc3cc(OCc4ccccc4)ccc32)sc1C(=O)NCc1ccccc1 [Example 3.9, N-Benzyl-2-(6-(benzyloxy)-2-oxoquinolin-1(2H)-yl)-4-methylthiazole-5-carboxamide]
180 to 182	Cc1nc(-n2ccccc2=O)sc1C(=O)NCc1ccccc1 [Example 3.10, N-Benzyl-4-methyl-2-(2-oxopyridin-1(2H)-yl)thiazole-5-carboxamide]
223 to 225	Cc1nc(-n2ccc(OCc3ccccc3)cc2=O)sc1C(=O)NCc1ccc(F)cc1 [Example 3.12, 2-(4-(Benzyloxy)-2-oxopyridin-1(2H)-yl)-N-(4-fluorobenzyl)-4-methylthiazole-5-carboxamide]
243 to 245	Cc1nc(-n2ccc(C(=O)Nc3ccccc3)cc2=O)sc1C(=O)NCc1ccccc1 [Example 3.13, N-Benzyl-4-methyl-2-(2-oxo-4-(phenylcarbamoyl)pyridin-1(2H)-yl)thiazole-5-carboxamide]
225 to 227	Cc1nc(-n2cccc(C(=O)Nc3ccccc3)c2=O)sc1C(=O)NCc1ccccc1 [Example 3.14, N-Benzyl-4-methyl-2-(2-oxo-3-(phenylcarbamoyl)pyridin-1(2H)-yl)thiazole-5-carboxamide]
223 to 225	Cc1nc(-n2cc(C(=O)Nc3ccccc3)ccc2=O)sc1C(=O)NCc1ccccc1 [Example 3.15, N-Benzyl-4-methyl-2-(2-oxo-5-(phenylcarbamoyl)pyridin-1(2H)-yl)thiazole-5-carboxamide]
218 to 220	Cc1nc(-n2ccccc2=O)sc1C(=O)NCc1cccnc1 [Example 3.16, 4-Methyl-2-(2-oxopyridin-1(2H)-yl)-N-(pyridin-3-ylmethyl)thiazole-5-carboxamide]
225 to 227	Cc1nc(-n2ccc(OCc3ccccc3)cc2=O)sc1C(=O)NCc1ccc(F)c(F)c1 [Example 3.17, 2-(4-(Benzyloxy)-2-oxopyridin-1(2H)-yl)-N-(3,4-difluorobenzyl)-4-methylthiazole-5-carboxamide]
175 to 177	Cc1nc(-n2ccc(COc3ccccc3)cc2=O)sc1C(=O)NCc1ccccc1 [Example 3.18, N-Benzyl-4-methyl-2-(2-oxo-4-(phenoxymethyl)pyridin-1(2H)-yl)thiazole-5-carboxamide]
175 to 177	Cc1cc(-n2ccc(OCc3ccccc3)cc2=O)sc1C(=O)NCc1ccc(F)cc1 [Example 3.21, 5-(4-(Benzyloxy)-2-oxopyridin-1(2H)-yl)-N-(4-fluorobenzyl)-3-methylthiophene-2-carboxamide]

From patent US8501746B2, “Organic compounds” (Xenon Pharmaceuticals Inc., priority 2006, dated 2013)
